Measured values from US10975037B2 (priority 2018, dated 2021).
Where a name gives a salt, the structure may show the parent alone. Read-outs that look alike come from different tables or passages of the source. Marks after values point to notes of the source that are not given here.

How the values were obtained:
[1] = molecular target: human RORγt ligand binding domain (RORγt LBD) (Homo sapiens (Human), UniProt P51449); experiment: RORγt ThermoFluor® assay (thermal shift binding)
Procedure, shortened: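 Thermal shift with 0.065 mg/mL RORγt LBD and 60 μM 1,8-ANS in 100 mM Hepes pH 7.0, 10 mM NaCl, 2.5 mM GSH, 0.002% Tween-20.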

full-length human RORγt = full-length human RORγt (Homo sapiens (Human), UniProt P51449); experiment: RORγt (full-length human) reporter assay, conditions A or B, HEK293T cells; type: cell-based; details: for inhibition at 6 µM: read-out: RORγt (FL) Reporter Assay A or B, % inhibition @ 6 μM; for inhibition at 2 µM: 2 μM compound concentration
Procedure, shortened: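 Dual-luciferase read-out was taken after an overnight (16–20 h) compound exposure. Firefly data were scaled between DMSO-only and saturating reference compound, Renilla-normalized, then plotted against concentration for IC50.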

[2] = read-out: ThermoFluor® Assay, Kd
[3] = RORγt (FL) Reporter Assay A or B, IC50, HEK293T cells
[4] = HEK293T cells, read-out: RORγt (FL) Reporter Assay A or B, IC50
[5] = HEK-293T, 3 μM compound concentration (footnote *), read-out: RORγt (FL) Reporter Assay A or B, % inhibition
[6] = HEK-293T, read-out: RORγt (FL) Reporter Assay A or B, % inhibition
[7] = HEK-293T, 6 μM compound concentration

Sequence of full-length human RORγt (P51449 other isoform, or with tags, fused parts or gaps): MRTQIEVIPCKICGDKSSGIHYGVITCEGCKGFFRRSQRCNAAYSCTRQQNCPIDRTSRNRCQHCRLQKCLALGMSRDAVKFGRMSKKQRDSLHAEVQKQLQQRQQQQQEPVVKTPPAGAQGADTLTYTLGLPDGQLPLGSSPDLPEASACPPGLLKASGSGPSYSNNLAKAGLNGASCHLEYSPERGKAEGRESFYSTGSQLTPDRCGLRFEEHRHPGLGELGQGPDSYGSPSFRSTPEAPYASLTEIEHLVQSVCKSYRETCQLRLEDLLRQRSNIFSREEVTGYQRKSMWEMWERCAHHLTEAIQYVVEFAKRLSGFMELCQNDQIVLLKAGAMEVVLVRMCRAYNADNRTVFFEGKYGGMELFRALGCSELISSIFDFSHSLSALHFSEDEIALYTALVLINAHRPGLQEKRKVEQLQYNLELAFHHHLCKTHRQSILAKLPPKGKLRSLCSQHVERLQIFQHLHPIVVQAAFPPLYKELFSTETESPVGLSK
Sequence of human RORγt ligand binding domain (RORγt LBD) (P51449 other isoform, or with tags, fused parts or gaps): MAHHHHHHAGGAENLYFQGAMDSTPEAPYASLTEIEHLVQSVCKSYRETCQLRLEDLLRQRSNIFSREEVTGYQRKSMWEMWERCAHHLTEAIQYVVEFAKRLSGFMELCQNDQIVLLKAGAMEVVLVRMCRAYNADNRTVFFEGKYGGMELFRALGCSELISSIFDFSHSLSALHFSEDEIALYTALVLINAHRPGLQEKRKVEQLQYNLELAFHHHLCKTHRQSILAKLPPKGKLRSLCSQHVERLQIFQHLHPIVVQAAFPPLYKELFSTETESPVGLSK

Compound | Kd [1, 2] | IC50 (full-length human RORγt; [3]) | Kd ([1]; ThermoFluor® Assay, Kd) | inhibition at 2 µM (full-length human RORγt; [6]) | also measured
CCn1nc(C(=O)NC[C@]2(O)CC[C@@H](S(C)(=O)=O)CC2)c(Cl)c1-c1ccc(N[C@H](C)C(F)(F)F)cc1 [Example 195, 4-Chloro-1-ethyl-N-(((1s,4S)-1-hydroxy-4-(methylsulfonyl)cyclohexyl)methyl)-5-(4-(((R)-1,1,1-trifluoropropan-2-yl)amino)phenyl)-1H-pyrazole-3-carboxamide] | 52 nM | 300 nM | – | – | inhibition at 6 µM (full-length human RORγt; HEK-293T): 96%
CCn1nc(C(=O)NC[C@H]2CC[C@H](S(=O)(=O)NC)CC2)c(Cl)c1-c1ccc(CC(C)(C)C(F)(F)F)cc1OC(F)F [Example 50, 4-Chloro-5-(2-(difluoromethoxy)-4-(3,3,3-trifluoro-2,2-dimethylpropyl)phenyl)-1-ethyl-N-(((1r,4r)-4-(N-methylsulfamoyl)cyclohexyl)methyl)-1H-pyrazole-3-carboxamide] | 0.1 nM | – | – | – | IC50 (full-length human RORγt; [4]): 3 nM
CCn1nc(C(=O)NC[C@H]2CC[C@H](S(C)(=O)=O)CC2)c(Cl)c1-c1c(F)cc(CC(C)C(F)(F)F)cc1F (some centres unmarked) [Example 197, 4-Chloro-5-(2,6-difluoro-4-(3,3,3-trifluoro-2-methylpropyl)phenyl)-1-ethyl-N-(((1r,4r)-4-(methylsulfonyl)cyclohexyl)methyl)-1H-pyrazole-3-carboxamide] | 2 nM | 21 nM | – | – | inhibition at 0.67 µM (full-length human RORγt; HEK-293T, 0.67 μM compound concentration (footnote ****), read-out: RORγt (FL) Reporter Assay A or B, % inhibition): 70%
CCn1nc(C(=O)NC[C@]2(O)CC[C@@H](S(C)(=O)=O)CC2)c(Cl)c1-c1ccc(C[C@@H](C)C(F)(F)F)cc1OC(F)F (single isomer, unassigned) [Example 136, 4-Chloro-5-(2-(difluoromethoxy)-4-((R*)-3,3,3-trifluoro-2-methylpropyl)phenyl)-1-ethyl-N-(((1s,4S)-1-hydroxy-4-(methylsulfonyl)cyclohexyl)methyl)-1H-pyrazole-3-carboxamide] | – | 3.6 nM | 1.1 nM | – | inhibition at […] (full-length human RORγt; HEK-293T, 0.33 μM compound concentration (footnote *****), read-out: RORγt (FL) Reporter Assay A or B, % inhibition): 89%
COc1cc(N[C@H](C)C(F)(F)F)ccc1-c1c(Cl)c(C(=O)NC[C@H]2CC[C@H](S(C)(=O)=O)CC2)nn1CC(C)C [Example 28, 4-Chloro-1-isobutyl-5-(2-methoxy-4-(((R)-1,1,1-trifluoropropan-2-yl)amino)phenyl)-N-(((1r,4R)-4-(methylsulfonyl)cyclohexyl)methyl)-1H-pyrazole-3-carboxamide] | 2.5 nM | 23 nM | – | 103% | –
CCOC(=O)[C@]1(CNC(=O)c2nn(CC)c(-c3ccc(N[C@H](C)C(F)(F)F)cc3OC)c2Cl)CC[C@@H](S(C)(=O)=O)CC1 (relative stereo) [Example 95, Ethyl (1r*,4R*)-1-((4-chloro-1-ethyl-5-(2-methoxy-4-(((R)-1,1,1-trifluoropropan-2-yl)amino)phenyl)-1H-pyrazole-3-carboxamido)methyl)-4-(methylsulfonyl)cyclohexane-1-carboxylate] | – | 380 nM | 110 nM | 76% | –
CCn1nc(C(=O)NC[C@H]2CC[C@@H](S(C)(=O)=O)CO2)c(Cl)c1-c1ccc(N[C@H](C)C(F)(F)F)cc1OC (relative stereo) [Example 17, 4-Chloro-1-ethyl-5-(2-methoxy-4-(((R)-1,1,1-trifluoropropan-2-yl)amino)phenyl)-N-(((2R*,5R*)-5-(methylsulfonyl)tetrahydro-2H-pyran-2-yl)methyl)-1H-pyrazole-3-carboxamide] | – | 2200 nM | 1300 nM | – | inhibition at 6 µM (full-length human RORγt; [7]): 67%
CCn1nc(C(=O)NC[C@H]2CC[C@H](S(C)(=O)=O)CC2)c(Cl)c1-c1ccc(OCC(C)(F)F)cc1OC [Example 214, 4-Chloro-5-(4-(2,2-difluoropropoxy)-2-methoxyphenyl)-1-ethyl-N-(((1r,4r)-4-(methylsulfonyl)cyclohexyl)methyl)-1H-pyrazole-3-carboxamide] | 39 nM | 84 nM | – | 79% | –
CCn1nc(C(=O)NC[C@]2(O)CC[C@@H](S(C)(=O)=O)CC2)c(Cl)c1-c1ccc(CCC(F)(F)F)cc1F [Example 180, 4-Chloro-1-ethyl-5-(2-fluoro-4-(3,3,3-trifluoropropyl)phenyl)-N-(((1s,4s)-1-hydroxy-4-(methylsulfonyl)cyclohexyl)methyl)-1H-pyrazole-3-carboxamide] | 46 nM | 66 nM | – | 41% | –

Now from value to compound, other results behind:

Kd [1, 2] | IC50 (full-length human RORγt; [3]) | Kd ([1]; ThermoFluor® Assay, Kd) | inhibition at 2 µM (full-length human RORγt; [6]) | Compound | also measured
0.7 nM | – | – | – | CCn1nc(C(=O)NC[C@H]2CC[C@H](S(=O)(=O)NC(C)=O)CC2)c(Cl)c1-c1ccc(CC(C)(C)C(F)(F)F)cc1OC(F)F [Example 68, N-(((1r,4r)-4-(N-Acetylsulfamoyl)cyclohexyl)methyl)-4-chloro-5-(2-(difluoromethoxy)-4-(3,3,3-trifluoro-2,2-dimethylpropyl)phenyl)-1-ethyl-1H-pyrazole-3-carboxamide] | RORγt (FL) Reporter Assay A or B, % inhibition (full-length human RORγt; 3 μM compound concentration (footnote *)): 97* %; IC50 (full-length human RORγt; [4]): 39 nM
– | 8 nM | 1 nM | – | CCn1nc(C(=O)NC[C@@H]2CC[C@@H](S(C)(=O)=O)C[NH+]2CC(=O)ON)c(Cl)c1-c1ccc(CC(C)(C)C(F)(F)F)cc1OC(F)F (stereo in doubt) [Example 63, N-(((2S*,5R*)-1-(2-(Aminooxy)-2-oxoethyl)-5-(methylsulfonyl)piperidin-2-yl)methyl)-4-chloro-5-(2-(difluoromethoxy)-4-(3,3,3-trifluoro-2,2-dimethylpropyl)phenyl)-1-ethyl-1H-pyrazole-3-carboxamide Trifluoroacetic Acid Salt] | inhibition at 3 µM (full-length human RORγt; [5]): 109%
– | 120 nM | 1.7 nM | – | CCn1nc(C(=O)NC[C@]2(O)CC[C@@H](S(C)(=O)=O)C[C@H]2N)c(Cl)c1-c1ccc(CC(C)(C)C(F)(F)F)cc1OC(F)F (stereo in doubt) [Example 5, N-(((1RS,2RS,4RS)-2-Amino-1-hydroxy-4-(methylsulfonyl)cyclohexyl)methyl)-4-chloro-5-(2-(difluoromethoxy)-4-(3,3,3-trifluoro-2,2-dimethylpropyl)phenyl)-1-ethyl-1H-pyrazole-3-carboxamide Hydrobromide] | inhibition at 3 µM (full-length human RORγt; [5]): 103%
– | 830 nM | 43 nM | – | CCn1nc(C(=O)NC[C@]2(C(=O)O)CC[C@H](S(C)(=O)=O)CC2)c(Cl)c1-c1ccc(CC(C)(C)C(F)(F)F)cc1OC(F)F [Example 121, (1r*,4r*)-1-((4-Chloro-5-(2-(difluoromethoxy)-4-(3,3,3-trifluoro-2,2-dimethylpropyl)phenyl)-1-ethyl-1H-pyrazole-3-carboxamido)methyl)-4-(methylsulfonyl)cyclohexane-1-carboxylic Acid] | inhibition at 6 µM (full-length human RORγt; [7]): 106%
– | 61 nM | 31 nM | 95% | CCn1nc(C(=O)NC[C@]2(O)CC[C@H](S(C)(=O)=O)C[C@H]2O)c(Cl)c1-c1ccc(CC(C)(C)C(F)(F)F)cc1OC(F)F (single isomer, unassigned) [Example 48, 4-Chloro-5-(2-(difluoromethoxy)-4-(3,3,3-trifluoro-2,2-dimethylpropyl)phenyl)-N-(((1R*,2R*4S*)-1,2-dihydroxy-4-(methylsulfonyl)cyclohexyl)methyl)-1-ethyl-1H-pyrazole-3-carboxamide] | –
